Series [1] deals with UGT (furosemide glucuronidation). As to the kind of experiment: Inhibition of furosemide glucuronidation in regular mouse liver microsomes. The format is in vitro ADME. To be noted: CD-1, mouse, pH 7.4, probe furosemide; regular mice liver microsomes. The text has this: (§1) IC50 values were directly determined from linear regression.
Background: Microsomes from liver hold many membrane-bound enzymes, among them those of drug oxidation.

Series [2] has as its system furosemide glucuronidation in mouse liver microsomes. The series is described as above. Type of series: in vitro ADME. To be noted: regular mice liver microsomes, 500 μmol/L AZT.
Text: as §1

Series [3] deals with furosemide glucuronidation in liver microsomes from hUGT1 mice. As to the kind of experiment: Inhibition of furosemide glucuronidation in liver microsomes from hUGT1 mice. The format is in vitro ADME, humanized UGT1 mice. To be noted: hUGT1 mice liver microsomes, 500 μmol/L AZT.
Text: as §1

Series [4] has as its system UGT (furosemide glucuronidation). The description is as above. The format is in vitro ADME, humanized UGT1 mice. To be noted: male, Tg(UGT1A1*28)Ugt1−/− (hUGT1), C57BL/6 background, mouse (humanized UGT1), pH 7.4, probe furosemide; humanized UGT1 mice liver microsomes.
Text: as §1

For series [5], the system named is furosemide glucuronidation in human liver microsomes. As to the kind of experiment: Inhibition of furosemide glucuronidation in human liver microsomes. As to conditions: 500 μmol/L AZT. Type of series: in vitro ADME.
Text: as §1

Series [6] deals with UGT (furosemide glucuronidation). The description is as above. As to conditions: pH 7.4, probe furosemide. Type of series: in vitro ADME.
Text: as §1

Series [7] concerns UGT activities in mouse liver microsomes. Also on record: method as in Court and Greenblatt [1997]. As to conditions: ref Court and Greenblatt [1997]; cited from earlier work.
Series [8] deals with UGT activities in human liver microsomes. On the set-up: method as in Court and Greenblatt [1997]. As to conditions: ref Court and Greenblatt [1997]; cited from earlier work.
Series [9] has as its system liver microsomes from hUGT1 mice.
Series [10] concerns furosemide glucuronidation in liver microsomes from control mice. To be noted: 0–0.5% BSA.
The subject of series [11] is furosemide glucuronidation in liver microsomes from hUGT1 mice. As to conditions: 0–0.5% BSA.
In series [12] the test system is furosemide glucuronidation in human liver microsomes. As to conditions: 0–0.5% BSA.

One may read the IC50 as the concentration that gives 50% inhibition. A lower IC50 goes with greater potency.

`Cc1cn([C@H]2C[C@H](N=[N+]=[N-])[C@@H](CO)O2)c(=O)[nH]c1=O` [AZT, 3′-azido-3′-deoxythymidine]: the IC50 at 30 min in [1], in [4] and in [6] was greater than 500 µM in each case. Moreover, the “Inhibition of furosemide glucuronidation (in words)” value in series [2], in series [3] and in series [5] was “did not inhibit” throughout.

For `C[C@H](CCC(=O)NCCC[N+](C)(C)CCCS(=O)(=O)[O-])[C@H]1CC[C@H]2[C@@H]3[C@H](O)C[C@@H]4C[C@H](O)CC[C@]4(C)[C@H]3C[C@H](O)[C@]12C` [CHAPS], in series [7], the “Increase of UGT activity by detergent” value is 439–563%. For the same molecule, the “Increase of UGT activities by detergent” value in series [8] was 9–66%.

For the molecule `C[C@]12CC[C@@H]3c4ccc(O)cc4CC[C@H]3[C@@H]1CC[C@@H]2O` [estradiol], the IC50 at 30 min in series [1] was determined as 111 µM; in [4] it was 32.5 µM; in series [6] it was 31.7 µM.

For the molecule `NCCc1c[nH]c2ccc(O)cc12` [serotonin], the concentration for half-maximal inhibition (IC50) at 30 min was 450 µM in series [1], 610 µM in [4] and greater than 5000 µM in series [6].

Consider `CN1CCN(CCCN2c3ccccc3Sc3ccc(C(F)(F)F)cc32)CC1` [trifluoperazine], for which the N-glucuronide formation result was “observed” in the series with human liver microsomes, “lesser but detectable amount” in series [9] and “not detected” in the series on mouse liver microsomes.

As to bovine serum albumin [BSA], the “Effect of BSA on furosemide glucuronidation” value in series [10] is on record as “similarly observed”; in series [11], “similarly observed”; in series [12], “concentration-dependently activated”.

The values are drawn from PMC4184567, “Glucuronidation of drugs in humanized UDP-glucuronosyltransferase 1 mice: Similarity with glucuronidation in human liver microsomes” (Pharmacology Research & Perspectives, 2013).
